The test system of one assay is Beth15. Put plainly: microbe, parasite or virus in culture. Type of assay: cell-based, human H3N2 influenza A virus (A/Bethesda/55/2015).
The subject of another assay is CIV-41915. The assay is described as follows: microbe, parasite or virus in culture. In kind it is cell-based, canine H3N2 influenza A virus (A/canine/Illinois/41915/2015). As to conditions: Influenza A virus, MDCK, in Canis lupus familiaris, read-out: Phenotypic assay (Mean IC50 ± SD).
Another assay relates to rCIV-1177. Put plainly: microbe, parasite or virus in culture. As to conditions: Influenza A virus, MDCK, in Canis lupus familiaris, read-out: Phenotypic assay (Mean IC50 ± SD). In kind it is cell-based.
Another assay has as its target NA of CIV-41915 (Influenza A virus, UniProt A0A0H3YBU9). In kind it is biochemical, canine H3N2 influenza A virus (A/canine/Illinois/41915/2015). As to conditions: read-out: NA enzyme inhibition assay (Mean IC50 ± SD).
The target of a further assay is NA of rCIV-1177 (Influenza A virus, UniProt A0A2D0WZJ5). In kind it is biochemical. As to conditions: read-out: NA enzyme inhibition assay (Mean IC50 ± SD).
The next assay addresses NA of Beth15 (Influenza A virus, UniProt A0A193ACB1). Type of assay: biochemical, human H3N2 influenza A virus (A/Bethesda/55/2015). As to conditions: read-out: NA enzyme inhibition assay (Mean IC50 ± SD).

Experimental findings from article PMC7182277, “Characterizing Emerging Canine H3 Influenza Viruses” (PLoS Pathogens, 2020) are described below.

Each structure is given as a SMILES string. Counter-ions that a name gives are not always drawn.

One may read the IC50 as the concentration that inhibits the measured activity by half. Regarding `NC12CC3CC(CC(C3)C1)C2` [Amantadine, amantadine hydrochloride], the “Phenotypic assay (Mean IC50 ± SD)” value in the assay on Beth15 is “resistant”. Besides, the 50% inhibitory concentration (IC50) in the assay with Beth15 (Influenza A virus, MDCK, read-out: Phenotypic assay (Mean IC50 ± SD)) is over 100000 nM; in the assay on CIV-41915 it was 600 ± 100 nM; in the assay on rCIV-1177, 300 ± 100 nM.

In the case of `CCC(CC)O[C@@H]1C=C(C(=O)O)C[C@H](N)[C@H]1NC(C)=O` [Oseltamivir carboxylate, oseltamivir carboxylate], the IC50 at NA of CIV-41915 was found to be 0.13 ± 0.01 nM; at NA of rCIV-1177, 0.2 ± 0.01 nM.

Consider `CCC(CC)[C@H](NC(C)=O)[C@@H]1[C@H](O)[C@@H](C(=O)O)C[C@H]1N=C(N)N` [Peramivir, peramivir], for which the IC50 at NA of Beth15 is 0.12 ± 0.02 nM; on NA of CIV-41915, 0.15 ± 0.02 nM; at NA of rCIV-1177, 0.19 ± 0.02 nM.
